# pKi: −log10 of the molar value.
# Target: DNA gyrase A/A/B/B tetramer (Escherichia coli (strain K12), UniProt P0AES4+P0AES6)
# Assay: DNA Gyrase ATPase Assay
row,SMILES,pKi
1,"CCNC(=O)Nc1nc2cc(-n3cnc(C(=O)NC4CC4)c3)c(F)cc2[nH]1 [N-cyclopropyl-1-{2-[(ethylcarbamoyl)amino]-6-fluoro-1H-1,3-benzodiazol-5-yl}-1H-imidazole-4-carboxamide]",> 8.40
2,"CCNC(=O)Nc1nc2c(-n3cccn3)cc(-c3cncnc3)cc2[nH]1 [3-ethyl-1-[7-(1H-pyrazol-1-yl)-5-(pyrimidin-5-yl)-1H-1,3-benzodiazol-2-yl]urea]",> 8.40
3,"CCNC(=O)Nc1nc2c(-c3ccccn3)cc(-n3cnc(C(=O)NC4CC4)c3)cc2[nH]1 [N-cyclopropyl-1-{2-[(ethylcarbamoyl)amino]-7-(pyridin-2-yl)-1H-1,3-benzodiazol-5-yl}-1H-imidazole-4-carboxamide]",> 8.40
4,"CCNC(=O)Nc1nc2c(-n3cccn3)cc(-c3cccnc3)cc2[nH]1 [3-ethyl-1-[7-(1H-pyrazol-1-yl)-5-(pyridin-3-yl)-1H-1,3-benzodiazol-2-yl]urea]",> 8.40
5,"CCNC(=O)Nc1nc2c(-n3cccn3)cc(-n3cnc(C(=O)NC4CC4)c3)cc2[nH]1 [N-cyclopropyl-1-{2-[(ethylcarbamoyl)amino]-7-(1H-pyrazol-1-yl)-1H-1,3-benzodiazol-5-yl}-1H-imidazole-4-carboxamide]",> 8.40
6,"CCNC(=O)Nc1nc2cc(-c3cccnc3)cc(C(=O)OC)c2[nH]1 [methyl 2-[(ethylcarbamoyl)amino]-5-(pyridin-3-yl)-1H-1,3-benzodiazole-7-carboxylate]",> 8.40
7,"CCNC(=O)Nc1nc2cc(-c3cccnc3)cc(-c3ccccn3)c2[nH]1 [3-ethyl-1-[7-(pyridin-2-yl)-5-(pyridin-3-yl)-1H-1,3-benzodiazol-2-yl]urea]",> 8.40
8,"CCNC(=O)Nc1nc2cc(-c3ccn(C)c(=O)c3)cc(-c3ncccc3F)c2[nH]1 [3-ethyl-1-[7-(3-fluoropyridin-2-yl)-5-(1-methyl-2-oxo-1,2-dihydropyridin-4-yl)-1H-1,3-benzodiazol-2-yl]urea]",> 8.40
9,"CCNC(=O)Nc1nc2cc(-c3cccnc3)cc(-c3ncccc3F)c2[nH]1 [3-ethyl-1-[7-(3-fluoropyridin-2-yl)-5-(pyridin-3-yl)-1H-1,3-benzodiazol-2-yl]urea]",> 8.40

# — BindingDB's records for doi:10.1021/jm800318d (Vertex Pharmaceuticals, 2008)
